Laboratory results taken from patent publication US9738591B2, “Antimicrobial compounds” (priority 2009, dated 2017).

How the values were obtained:
Test in all cases: Disk diffusion
[1] = system: A. calcoaceticus ATCC 15308
[2] = system: Bacillus cereus ATCC 13061; details: B. cereus ATCC 13061
[3] = system: Citrobacter freundii NCTC 9750/ATCC 8090; details: C. freundii NCTC 9750
[4] = system: Aeromonas hydrophila NCTC 8049/ATCC 7966; details: A. hydrophila NCTC 8049; further: test concentration or dose not given here
[5] = system: Stenotrophomonas maltophilia ATCC 13637; details: S. maltophilia ATCC 13637
[6] = system: Pseudomonas aeruginosa NCTC 10662; details: P. aeruginosa NCTC 10662
[7] = system: Staphylococcus epidermidis ATCC 12228; details: S. epidermidis ATCC 1228
[8] = system: Staphylococcus aureus (methicillin resistant) NCTC 10442; details: S. aureus NCTC 10442
[9] = system: Micrococcus luteus ATCC 10240; details: M. luteus ATCC 10240
[10] = system: Proteus mirabilis NCTC 10975; details: P. mirabilis NCTC 10975
[11] = system: Salmonella enterica subsp. enterica serovar Typhimurium ATCC 13311; details: S. typhimurium ATCC 13311
[12] = system: Staphylococcus aureus NCTC 6571/ATCC 9144; details: S. aureus NCTC 6571
[13] = system: Staphylococcus xylosus ATCC 29971; details: S. xylosus ATCC 29971
[14] = system: Yersinia enterocolitica clinical 26609; details: Y. enterocolitica clinical 26609
[15] = system: Escherichia coli NCTC 10538; details: E. coli NCTC 10538
[16] = system: K. pneumoniae NCTC 10896
[17] = system: Bacillus subtilis ATCC 6633; details: B. subtilis ATCC 6633
[18] = system: Shigella flexneri NCTC 8192; assay type: cell-based; details: S. flexneri NCTC 8192
Experimental: Plates were incubated at 35° C.

[19] = system: Streptococcus pyogenes NCTC 8191; details: S. pyogenes NCTC 8191
[20] = system: Moraxella catarrhalis NCTC 3625; details: M. catarrhalis NCTC 3625
[21] = system: Listeria monocytogenes NCTC 7973; details: L. monocytogenes NCTC 7973; further: test concentration or dose not given here
[22] = system: Enterococcus faecalis NCTC 775; details: E. faecalis NCTC 775; further: test concentration or dose not given here
[23] = system: V. cholerae non-01 clinical
[24] = system: C. albicans ATCC 90028
[25] = system: E. coli NCTC 10418; details: E. coli NCTC 10418
[26] = system: Streptococcus pneumoniae ATCC 49619; details: S. pneumoniae ATCC 49619; further: test concentration or dose not given here

Measured: Zone of Inhibition

O=C(O)c1ccc(CCc2ccc(CCc3ccc(C(=O)O)cc3)c(CCc3ccc(C(=O)O)cc3)c2)cc1 [TSB068]
7 mm: [4]
20 mm: [19]
23 mm: [26]
15 mm: [21]
32 mm: [20]
8 mm: [9] | [12]
0 mm: all other assays above
